Experimental findings from US5541174A, “Analgesic method” (priority 1995, dated 1996) are described below.

Assay [1] has as its system adjuvant-induced arthritic pain in rats. As to the kind of experiment: Adjuvant-induced arthritic pain. Type of assay: in vivo, male Sprague-Dawley rats. The note with it: for time course of analgesia: FIG. 1, 5 hours post-treatment. The source says: 2. Adjuvant-induced arthritic pain as described in:
S. KUZNA, et al., Measurement of Arthritic Pain and Effects of Analgesics in the Adjuvant-Treated Rat, Chem. Pharm. Bull. 23, 1184-1191 (1975);
C. A. WINTER, et al., Analgesic Activity of Diflunisal in Rats with Hyperalygesia Induced by Freud's Adjuvant, J. Pharmacol. Exp. Ther. 211, 678-685 (1979; and
M. E. ROSENTHALE, et al., Adjuvant Arthritis:Immuno-Pathological and Hyperalgesic Features, Fed. Proced. 41, 2577-2582 (1982),
incorporated by reference herein.
Groups of 5-6 male Sprague-Dawley rats (Taisho Pharmaceutical Co. Research Center) weighing 140 to 160 g at the time of Mycobacterium butyricum (adjuvant, Difco Laboratories, Detroit, Mich.) injection were used to study each compound. Rats were injected intradermally at the base of the tail with 0.1 ml of a parafin oil suspension of 0.5 mg of heat-killed mycobacterium. Fifteen to 19 days later, drugs were administered orally or subcutaneously in 0.5 ml of vehicle per 100 g of body weight to rats showing the nociceptive reaction, vocalization following a gentle flexion of the tarsal-tibial joint of the inflamed hind-paw. Vocalization responses were measured every hour for 5 hours. […] The ED50 value and 95% confidence limits were calculated from the positive rate for non-treated controls, vehicle-treated adjuvant arthritic rats, by the method of Litchfield and Wilcoxin.
All drugs were suspended with 5% gum arabic in saline solution or wetted with enough propylene glycol to give a final concentration of 4% propylene glycol and the wetted solid suspended in 1.4% polyvinyl alcohol in saline.

For assay [2], the system named is acetic acid induced writhing in mice. As to the kind of experiment: Acetic acid-induced writhing test. In kind it is in vivo, ICR male mice. The procedure: 1. Acetic acid-induced writhing test as described in Koster et al., "Acetic Acid for Analgesic Screening", Fed. Proc. 18, 412 (1959), incorporated by reference herein; and
Groups of 10 ICR male mice (Taisho Pharmaceutical Co. Research Center) were used to study each dose of every compound. Ligands or complexes were administered orally or subcutaneously in 0.1 ml of vehicle per 10 g of body weight 30 minutes before the intrapertioneal injection of 0.1 ml of 0.7% acetic acid solution per 10 g of body weight. Number of writhes were counted for each mouse during a period of 10 to 20 min after acetic acid injection. Inhibitory percent was calculated by comparison with the number of writhes in the non-treated control, vehicle-treated, and acetic acid-injected group. The ED50 value and 95% confidence limits were calculated from the inhibitory percent by the method of Litchfield and Wilcoxon.

Where [3] appears, read: oral, 5% gum arabic, 0.30 mmol/kg.
Where [4] appears, read: oral, 5% gum arabic, 0.60 mmol/kg.
Where [5] appears, read: oral, 5% gum arabic, 0.15 mmol/kg.
Setting [6] is: oral, 5% gum arabic, 0.18 mmol/kg.
The mark [7] stands for this setting: oral, 5% gum arabic, 0.71 mmol/kg.
Where [8] appears, read: oral, 5% gum arabic, 0.59 mmol/kg.

As a reminder, the ED50 is the dose that gives a 50% effect, or the effect in half of the subjects. By % Inhibition is commonly meant the change of the read-out against control, counted positive when it falls. Take `Nc1ccccc1C(=O)[O-].Nc1ccccc1C(=O)[O-].[Cu+2]` [Cu(II)(anthranilate)2, Bisanthranilato(O,N)copper(II)]: the “analgesic effectiveness versus parent ligand” value in assay [1] (oral, 5% gum arabic) is on record as “less effective than its parent ligand”; in assay [1] (oral, PG-PVA), “less effective than its parent ligand”; in assay [2] (oral, 5% gum arabic in saline) it was “more effective than their parent ligands”; in assay [2] (oral, PG-PVA), “more effective than their parent ligands”. Moreover, the ED50 in assay [1] (oral, 5% gum arabic in saline) is listed as greater than 0.60 mmol/kg; in assay [1] (oral, PG-PVA in saline) it was greater than 0.60 mmol/kg; in assay [1] (s.c., PG-PVA in saline), 0.19 mmol/kg; in assay [2] (oral, 5% gum arabic in saline), 0.50 mmol/kg; in assay [2] (oral, PG-PVA in saline) it was greater than 0.89 mmol/kg; in assay [2] (s.c., PG-PVA in saline), 0.22 mmol/kg. The “% Inhibition” value was determined as 0% in assay [1] (setting [3]); 10% in assay [1] (setting [4]); 17% in assay [1] (oral, PG-PVA, 0.60 mmol/kg); 20% in assay [1] (s.c., PG-PVA, 0.07 mmol/kg); 43% in assay [1] (s.c., PG-PVA, 0.15 mmol/kg); 63% in assay [1] (s.c., PG-PVA, 0.30 mmol/kg). Moreover, the “% Inhibition” value worked out at 25% in assay [2] (setting [5]); 47% in assay [2] (setting [3]); 50% in assay [2] (setting [4]); 30% in assay [2] (s.c., PG-PVA, 0.07 mmol/kg); 42% in assay [2] (s.c., PG-PVA, 0.15 mmol/kg); 57% in assay [2] (s.c., PG-PVA, 0.30 mmol/kg).
As to `[Cl][Cu][Cl]` [Cu(II)(chloride)2, reference compound], in assay [1] (doses statistically significantly analgesic in the writhing model), the analgesic activity result is reported as “devoid of analgesic activity”. The ED50 was greater than 2.24 mmol/kg in assay [1] (oral, PG-PVA in saline); greater than 2.24 mmol/kg in assay [1] (s.c., PG-PVA in saline); 0.60 mmol/kg in assay [2] (s.c., PG-PVA in saline). Moreover, the “% Inhibition” value in assay [1] (oral, PG-PVA, 2.24 mmol/kg) was determined as 0%; in assay [1] (s.c., PG-PVA, 2.24 mmol/kg), 3%; in assay [2] (s.c., PG-PVA, 0.56 mmol/kg) it was 48%; in assay [2] (s.c., PG-PVA, 1.12 mmol/kg) it was 69%; in assay [2] (s.c., PG-PVA, 2.24 mmol/kg), 83%.
On to `COc1ccc2c(c1)c(CC(=O)O)c(C)n2C(=O)c1ccc(Cl)cc1` [Indomethacin, reference compound], for which the ED50 in assay [1] (oral, 5% gum arabic in saline) was 0.003 mmol/kg; in assay [1] (oral, PG-PVA in saline), 0.02 mmol/kg; in assay [2] (oral, 5% gum arabic in saline), 0.04 mmol/kg; in assay [2] (oral, PG-PVA in saline), 0.01 mmol/kg; in assay [2] (s.c., PG-PVA in saline) it was 0.02 mmol/kg. In addition, the “% Inhibition” value in assay [1] (oral, 5% gum arabic, 0.001 mmol/kg) came out at 27%; in assay [1] (oral, 5% gum arabic, 0.003 mmol/kg) it was 43%; in assay [1] (oral, 5% gum arabic, 0.006 mmol/kg) it was 77%; in assay [1] (oral, PG-PVA, 0.007 mmol/kg), 23%; in assay [1] (oral, PG-PVA, 0.014 mmol/kg) it was 43%; in assay [1] (oral, PG-PVA, 0.028 mmol/kg), 70%. In addition, the “% Inhibition” value in assay [2] (oral, 5% gum arabic, 0.01 mmol/kg) is reported as 36%; in assay [2] (oral, 5% gum arabic, 0.03 mmol/kg), 42%; in assay [2] (oral, 5% gum arabic, 0.06 mmol/kg), 58%; in assay [2] (oral, PG-PVA, 0.007 mmol/kg) it was 27%; in assay [2] (oral, PG-PVA, 0.014 mmol/kg), 60%; in assay [2] (oral, PG-PVA, 0.028 mmol/kg), 68%. In addition, the “% Inhibition” value in assay [2] (s.c., PG-PVA, 0.007 mmol/kg) was 19%; in assay [2] (s.c., PG-PVA, 0.014 mmol/kg), 36%; in assay [2] (s.c., PG-PVA, 0.056 mmol/kg), 60%.
Take `O=C(O)c1cccnc1Nc1cccc(C(F)(F)F)c1` [Niflumic acid, 2[3(trifluoro-methyl)phenyl] aminonicotinic acid, reference compound]: the ED50 is 0.42 mmol/kg in assay [1] (oral, 5% gum arabic in saline); 0.48 mmol/kg in assay [1] (oral, PG-PVA in saline); 0.15 mmol/kg in assay [2] (oral, 5% gum arabic in saline); 0.21 mmol/kg in assay [2] (oral, PG-PVA in saline); 0.10 mmol/kg in assay [2] (s.c., PG-PVA in saline). Further, the “% Inhibition” value in assay [1] (setting [6]) is given as 13%; in assay [1] (setting [7]), 87%; in assay [1] (oral, PG-PVA, 0.18 mmol/kg), 23%; in assay [1] (oral, PG-PVA, 0.71 mmol/kg), 60%; in assay [2] (setting [6]), 52%; in assay [2] (setting [7]), 75%. The “% Inhibition” value in assay [2] (oral, PG-PVA, 0.13 mmol/kg) turned out to be 38%; in assay [2] (oral, PG-PVA, 0.27 mmol/kg), 51%; in assay [2] (oral, PG-PVA, 0.53 mmol/kg) it was 80%; in assay [2] (s.c., PG-PVA, 0.04 mmol/kg) it was 21%; in assay [2] (s.c., PG-PVA, 0.09 mmol/kg) it was 54%; in assay [2] (s.c., PG-PVA, 0.18 mmol/kg), 64%.
On to `O=C(O)c1ccccc1O` [Salicylic acid, reference compound], for which the 50% effective dose (ED50) is listed as 2.33 mmol/kg in assay [1] (oral, 5% gum arabic in saline); 1.83 mmol/kg in assay [1] (oral, PG-PVA in saline); 2.13 mmol/kg in assay [2] (oral, 5% gum arabic in saline); greater than 2.17 mmol/kg in assay [2] (oral, PG-PVA in saline); 1.02 mmol/kg in assay [2] (s.c., PG-PVA in saline). The “% Inhibition” value in assay [1] (oral, 5% gum arabic, 1.09 mmol/kg) is listed as 27%; in assay [1] (oral, 5% gum arabic, 2.17 mmol/kg), 57%; in assay [1] (oral, 5% gum arabic, 4.34 mmol/kg), 37%; in assay [1] (oral, PG-PVA, 0.72 mmol/kg) it was 33%; in assay [1] (oral, PG-PVA, 1.44 mmol/kg), 43%; in assay [1] (oral, PG-PVA, 2.88 mmol/kg), 60%. For the same compound, the “% Inhibition” value was 29% in assay [2] (oral, 5% gum arabic, 0.91 mmol/kg); 33% in assay [2] (oral, 5% gum arabic, 1.81 mmol/kg); 73% in assay [2] (oral, 5% gum arabic, 3.62 mmol/kg); 38% in assay [2] (oral, PG-PVA, 2.17 mmol/kg); 25% in assay [2] (s.c., PG-PVA, 0.54 mmol/kg); 52% in assay [2] (s.c., PG-PVA, 1.09 mmol/kg). The “% Inhibition” value in assay [2] (s.c., PG-PVA, 2.17 mmol/kg) was 80%. Moreover, the “time course of analgesia” value in assay [1] (oral, 5% gum arabic) is reported as “began to decline in the 3 to 4 hr interval following treatment”.
For the compound “(Salicylato)2n -(aqua)4n -copper(II)n [Cu(II)(salicylate)2]”, the “analgesic effectiveness versus parent ligand” value is listed as “more effective than its parent ligand” in assay [1] (oral, 5% gum arabic); “more effective than its parent ligand” in assay [1] (oral, PG-PVA); “more effective than their parent ligands” in assay [2] (oral, 5% gum arabic in saline); “more effective than their parent ligands” in assay [2] (oral, PG-PVA). The ED50 in assay [1] (oral, 5% gum arabic in saline) was determined as 0.25 mmol/kg; in assay [1] (oral, PG-PVA in saline), 0.12 mmol/kg; in assay [1] (s.c., PG-PVA in saline), 0.12 mmol/kg; in assay [2] (oral, 5% gum arabic in saline), 0.65 mmol/kg; in assay [2] (oral, PG-PVA in saline), 1.53 mmol/kg; in assay [2] (s.c., PG-PVA in saline) it was 0.17 mmol/kg. The “% Inhibition” value in assay [1] (setting [5]) stood at 27%; in assay [1] (setting [3]) it was 57%; in assay [1] (setting [8]), 73%; in assay [1] (oral, PG-PVA, 0.15 mmol/kg) it was 30%; in assay [1] (oral, PG-PVA, 0.30 mmol/kg), 47%; in assay [1] (oral, PG-PVA, 0.59 mmol/kg), 90%. The “% Inhibition” value is recorded as 20% in assay [1] (s.c., PG-PVA, 0.04 mmol/kg); 37% in assay [1] (s.c., PG-PVA, 0.07 mmol/kg); 57% in assay [1] (s.c., PG-PVA, 0.15 mmol/kg); 30% in assay [2] (setting [3]); 43% in assay [2] (setting [8]); 69% in assay [2] (oral, 5% gum arabic, 1.18 mmol/kg). In addition, the “% Inhibition” value in assay [2] (oral, PG-PVA, 0.30 mmol/kg) turned out to be 20%; in assay [2] (oral, PG-PVA, 0.59 mmol/kg), 27%; in assay [2] (oral, PG-PVA, 1.18 mmol/kg) it was 46%; in assay [2] (s.c., PG-PVA, 0.07 mmol/kg) it was 40%; in assay [2] (s.c., PG-PVA, 0.15 mmol/kg), 48%; in assay [2] (s.c., PG-PVA, 0.30 mmol/kg) it was 66%. The “time course of analgesia” value in assay [1] (oral, 5% gum arabic) is given as “maintained or increased throughout the entire 5 hour post-treatment interval”.
